Paper PMC5295395, “Inhibition of PlexA1-mediated brain tumor growth and tumor-associated angiogenesis using a transmembrane domain targeting peptide” (Oncotarget, 2016)
“Also recorded” adds a separate entry of the source.

B1: Sema3A: PlexA1 ligand (protein, UniProt Q14563 21-771, looked up)
Semaphorin-3A: NYQNGKNNVPRLKLSYKEMLESNNVITFNGLANSSSYHTFLLDEERSRLYVGAKDHIFSFDLVNIKDFQKIVWPVSYTRRDECKWAGKDILKECANFIKVLKAYNQTHLYACGTGAFHPICTYIEIGHHPEDNIFKLENSHFENGRGKSPYDPKLLTASLLIDGELYSGTAADFMGRDFAIFRTLGHHHPIRTEQHDSRWLNDPKFISAHLISESDNPEDDKVYFFFRENAIDGEHSGKATHARIGQICKNDFGGHRSLVNKWTTFLKARLICSVPGPNGIDTHFDELQDVFLMNFKDPKNPVVYGVFTTSSNIFKGSAVCMYSMSDVRRVFLGPYAHRDGPNYQWVPYQGRVPYPRPGTCPSKTFGGFDSTKDLPDDVITFARSHPAMYNPVFPMNNRPIVIKTDVNYQFTQIVVDRVDAEDGQYDVMFIGTDVGTVLKVVSIPKETWYDLEEVLLEEMTVFREPTAISAMELSTKQQQLYIGSTAGVAQLPLHRCDIYGKACAECCLARDPYCAWDGSACSRYFPTAKRRTRRQDIRNGDPLTHCSDLHHDNHHGHSPEERIIYGVENSSTFLECSPKSQRALVYWQFQRRNEERKEEIRVDDHIIRTDQGLLLRSLQQKDSGNYLCHAVEHGFIQTLLKVTLEVIDTEHLEELLHKDDDGDGSKTKEMSNSMTPSQKVWYRDFMQLINHPNLNTMDEFCEQVWKRDRKQRRQRPGHTPGNSNKWKHLQENKKGRNRRTHEFERAPRSV

Columns and labels:
[1] = system: PlexA1 TMD; test: bacterial two-hybrid (BACTH) assay of TMD interactions with PlexA1 TMD; assay type: binding; settings: Zip sequence positive control, Empty negative control
Text: To further explore the TMD interactions of PlexA1 we used a bacterial two-hybrid system for a more systematic analysis of TMD interactions. TMD sequences of PlexA1 and various potential interacting partners including NRP1 and all other members of the Plexin-A family were co-expressed in the bacteria to define the hierarchy of the interactions.
(§1) “Zip sequence” is the positive control of dimerization and “Empty” is the negative control of this bacterial system. (C, D) SPR assay (Biacore) to quantify MTP-PlexA1 interactions with PLexA1, NRP1 and VEGFR2 TMDs. (E) Proximity ligation assay showing that MTP-PlexA1 (10^−7 M) decreases the number of PLexA1-NRP1 interactions (green dots) in U373MG cells (scale bar = 20 μm).

[2] = system: NRP1; settings: cited from earlier work
Text: Glioblastoma (GBM) is a devastating disease with poor prognosis. Highly infiltrative and vascularized, these tumors are composed of multi-clonal cell types with various migratory and proliferative properties, and are genetically very heterogeneous. This obvious cellular heterogeneity largely accounts for the observed resistance to all available therapeutic strategies including, surgery, radiotherapy and chemotherapy. Significant recent progress in targeted therapy comprises blocking various receptor tyrosine kinases (RTK) or inhibiting angiogenesis. However, the clinica ...

[3] = system: NRP1/PlexA1 complexes; test: in situ proximity ligation assay (Duo-link), NRP1/PlexA1 complexes in U373MG cells; assay type: cell-based, human; settings: specificity control, MTP-Neu at 10–6 M
Description: as §1
Additional specificity controls were performed using a mutated version of MTP-PlexA1 (in which 3 glycines of the GxxxGxxxG motif were replaced by 3 valines or MTP-Neu, an anti-breast cancer peptide known to not interact with PlexA1) as described in Supplementary Figure S2. […] Similar results were obtained when cells were exposed to VEGF (39.4% NRP1 and 35.4% PlexA4, Figure 4B).
Supplementary Figure S2: Specificity controls were performed using a mutated version of MTP-PlexA1 […]
LVIVAVLIAYKRK). Such mutations have been previously shown to be sufficient to lose activity of NRP1 antagonist membrane domain targeting peptide (Roth et al., 2008 Mol Biol Cell). We also used MTP-Neu, a transmembrane domain targeting peptide known to […]
M, a concentration previously shown to produce maximal antagonist activity of the peptide. Additionally, we also repeated the in vitro angiogenic assay on matrigel using HUVEC cells. […]
to MTP-PlexA1. These experiments confirmed the specificity of MTP-PlexA1.
(§2) (1 picture or pasted object on this page, not shown here)

[4] = system: HUVEC cells; test: pseudo-tube formation assay, HUVEC on matrigel; assay type: cell-based, human; settings: specificity control
Text: We observed PlexA1 positive blood vessels in the tissue array of GBM samples (Figure 5A). […] To address this possibility we first used a transgenic zebra-fish model tg(kdrl:eGFP) highlighting the endothelial cells. This allowed us to assess the angiogenic activities in vivo by analyzing formation of intersegmental vessels (ISVs) after morpholino-based knockdown of the target.
Figure 5 MTP-PlexA1 inhibits developmental and tumor-specific PlexA1 pro-angiogenic role (A) Microphotographs illustrating the expression of PlexA1 in vascular-like structures in human glioma tissues. (Scale bar: 40 μm). (B) Morpholino-based PlexA1 knockdown in Zebrafish tg(kdrl:eGFP) line. Representative images of control, Plexin-A1 mismatch and Pexin-A1 knockdown embryos (plxna1MO) are shown 28 hours post fertilization (28hpf). […] (E) Live-monitoring of VEGF-induced HUVEC cell migration assay using the XCelligence system (transwell assay). (F) Microphotographs illustrating the expression of PlexA1 in blood vessels of the chick chorioallontoic membrane (upper left picture). Microphotographs (middle and lower left pictures) and camera lucida drawing (middle and lower right pictures) showing representative fields of observation after 24 h incubation with VEGF (100 ng/ml, +vehicle) or VEGF + MTP-PlexA1 (10^−7 M). The number of VEGF-induced new blood vessels is shown in the graph. […]

[5] = system: U373MG cells; test: 3D migration assay, U373MG spheroids in plasma clot; assay type: cell-based, human; settings: U373MG, 100 ng/ml, 24 h plasma clot
Description: Supplementary Figure S6: The anti-tumor effect of MTP-PlxA1 was verified in U373MG human GBM line. We found […]
Because PlexA1 is involved in cell migration we also performed a 3D migration assay. U373MG cells were grown as cell aggregates (micro tumor-like spheroids) for 24 h in plasma clot with or without VEGF. […]
migration that formed cell chains invading the 3D substrate as previously described (12). Strikingly, VEGF-induced cell migration was abolished when MTP-PlexA1 at 10–7 M was added to the cultures. […]
of PlexA1, this part of the study exemplified the therapeutic potential of MTP-PlexA1 because this peptide was able to block two major mechanisms of tumor progression.
(Stable Disease) and 62.5% PR (Partial Response).
as §2

[6] = system: p-Akt/Akt; test: western blot of Akt phosphorylation in U373MG cells; assay type: cell-based, human; settings: p-Akt/Akt ratio, western blot, Sema3A 100 ng/ml
Description: (C) Rac-1 activation assay in resting condition and after Sema3A-induced Rac-1 activation in U373 MG cells. (D) Western blot analysis of phosphorylated Akt, total Akt and tubulin in U373MG cells treated with the vehicle (LDS 72 μM), Sema3A (100 ng/ml) or Sema3A + MTP-PlexA1 (10^−7 M). The lower panel is showing the quantification of the p-Akt/Akt ratio in the different conditions. (E) MTP-PlexA1 decreases VEGFR-2 phosphorylation induced by VEGF (100 ng/ml) in HUVEC cells. […]
in 20 mM sodium acetate (pH 4.5) at a flow rate of 5 μl/ min 10–7 M of MTP-PlexA1 or Vehicle (LDS, 72 µM) during until desired surface densities, measured in response 1 h. Stimulation was done with 100ng/ml Semaphorin 3A units, were reached. […] First antibodies (Rabbit anti-phospho-the elution buffer containing detergent removed non- akt, Rabbit anti-akt, Cell Signaling #4060 and #9272 biotinylated peptides rendering the chip ready for analysis respectively) and mouse anti-tubulin α (Cell Signaling with monomeric biot-MTP-PlexA1. Blank surfaces were #2144) were incubated overnight at 4°C (+ anti-NRP1, used for background corrections. Injections of 30 µl anti-PlexA4 Abcam). […] Images of the immuno-blots cells per well in a 6-well plate and serum starved overnight. were acquired and analyzed thanks to the GENE GNOME Before protein extraction, the cells were treated either with apparatus (Syngene Bio Imaging, UK).

Row | Molecule | interaction with PlexA1 TMD [1] | also measured
1 | AAQVGLGVGTSLLALGVIIIVLMYRRK [Plexin-B1, TMD of Plexin B1 in BACTH assay] | no significant interaction | –
2 | IEITLIIFGVMAGVIGTILLISYGIRRK [GPA, TMD of GpA in BACTH assay] | no significant interaction | –
3 | IIILVGTAVIAMFFWLLLVIILRTVKRK [VEGFR-2, TMD of VEGFR-2 in BACTH assay] | no significant interaction | –
4 | IIPIVAGVVAGIVLIGLALLLIWKLLKR [Integrin Beta-1, TMD of Integrin β-1 in BACTH assay] | no significant interaction | –
5 | ILITIIAMSALGVLLGAVCGVVLYRKR [MTP-NRP1, synthetic peptide mimicking the TMD of NRP1] | – | NRP1 dimerization antagonism [2]: potent inhibitor by antagonizing dimerization; brain tumor growth [2]: reducing brain tumor growth; tumor cell migration and angiogenesis ([2]; in vitro and in vivo): impaired tumor cell migration and angiogenesis
6 | ILITIIAMSALGVLLGAVCGVVLYRKR [NRP1, TMD of Neuropilin-1 in BACTH assay] | significant interaction | –
7 | ISIISAVVGILLVVVLGVVFGILIKRR [HER2, TMD of HER2 in BACTH assay] | no significant interaction | –
8 | NFTGLIAGVVSISTALLLLLGFFLWLKKR [cMET, TMD of c-Met in BACTH assay] | no significant interaction | –
9 | NLELITLCTCVAATLFWLLLTLFIRKK [VEGFR-1, TMD of VEGFR-1 in BACTH assay] | no significant interaction | –
10 | SLPAIVSIAVAGGLLIIFIVAVLIAYKRK [Plexin-A4, TMD of Plexin A4 in BACTH assay] | positive interactions | –
11 | SMEIVILVGTGVIAVFFWVLLLLIFCNRRK [VEGFR-3, TMD of VEGFR-3 in BACTH assay] | no significant interaction | –
12 | TLPAIVGIGGGGGLLLLVIVAVLIAYKRK [PlexA1, TMD of Plexin A1 in BACTH assay] | homo-dimerization capacity | –
13 | TLPAIVSIAAGGSLLLIIVIIVLIAYKRK [Plexin-A2, TMD of Plexin A2 in BACTH assay] | weaker interactions | –
14 | TLPAIVVIGGVGVLLLLVIVAVLIAYKRK [MTP-PlexA1mut] | – | disruption of NRP1/PlexA1 dimers [3]: not by mutated MTP-PlexA1mut peptide; effect on number of tube-like structures (HUVEC on matrigel) [4]: not able to decrease tube like structure; also recorded: not able to reduce the number of tube-like structures
15 | TLPAMMGLAAGGGLLLLAITAVLVAYKRK [Plexin-A3, TMD of Plexin A3 in BACTH assay] | weaker interactions | –
16 | VEGF [reference compound] | – | tumor cell migration induced by VEGF [5]: induced tumor cell
17 | B1 | – | change of Akt phosphorylation [6]: −33%
